# Data as given in PubChem BioAssay AID330 (DTP/NCI, 2004).
# Values joined by “and” are separate entries in the source; they are usually repeats but may differ in a detail not shown here. Equal values may be shown once. Toxic doses and inconclusive results are not listed. Square brackets hold non-standard residues; d marks the D form. Peptide text beside a SMILES is read from it. * marks the point of attachment. ξ: configuration not given here. Cbz = O=C(OCc1ccccc1)*; ξT = CC(O)C(N)C(=O)O
# System: P388 leukemia ip, CD2F1 mice, survival T/C
# Assay: NCI In Vivo Anticancer Drug Screen. Data for tumor model P388 Leukemia (intraperitoneal) in CD2F1 (CDF1) mice
# Conditions: endpoint: median survival time, higher = longer survival
# In short: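 Mice carrying the transplanted tumor received test compound or vehicle. Survival was recorded in each group, and the value is the treated-group measurement divided by that of the vehicle-treated control group.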
# [1] = dose: 50.0 mg/kg/injection, schedule: Q01DX009 (ip), vehicle: saline with Tween-80
# [2] = dose: 100.0 mg/kg/injection, schedule: Q01DX009 (ip), vehicle: saline with Tween-80
# [3] = dose: 200.0 mg/kg/injection, schedule: Q01DX009 (ip), vehicle: saline with Tween-80
# [4] = dose: 50.0 mg/kg/injection, schedule: Q01DX005 (ip), vehicle: saline with Tween-80
# [5] = dose: 100.0 mg/kg/injection, schedule: Q01DX005 (ip), vehicle: saline with Tween-80
# [6] = dose: 200.0 mg/kg/injection, schedule: Q01DX005 (ip), vehicle: saline with Tween-80
structure (smiles),measurement,setting,value
CCCCC(=O)OCC(=O)[C@]1(O)Cc2c(O)c3c(c(O)c2[C@@H](OC2CC(NC(=O)C(F)(F)F)C(O)C(C)O2)C1)C(=O)c1c(OC)cccc1C3=O (some centres not stated),T/C,"dose: 0.5 mg/kg/injection, schedule: Q04DX003 (ip), vehicle: saline with Tween-80",98 % of control
same,T/C,"dose: 1.0 mg/kg/injection, schedule: Q04DX003 (ip), vehicle: saline with Tween-80",104 % of control
same,T/C,"dose: 1.4 mg/kg/injection, schedule: Q01DX009 (ip), vehicle: clinical formulation",124 % of control
same,T/C,"dose: 2.0 mg/kg/injection, schedule: Q04DX003 (ip), vehicle: saline with Tween-80",99 % of control and 101 % of control
same,T/C,"dose: 4.0 mg/kg/injection, schedule: Q04DX003 (ip), vehicle: saline with Tween-80",100 % of control and 101 % of control and 105 % of control
same,T/C,"dose: 6.48 mg/kg/injection, schedule: Q01DX009 (ip), vehicle: clinical formulation",162 % of control
same,T/C,"dose: 8.0 mg/kg/injection, schedule: Q04DX003 (ip), vehicle: saline with Tween-80",114 % of control and 121 % of control and 97 % of control
same,T/C,"dose: 9.38 mg/kg/injection, schedule: Q04DX003 (ip), vehicle: clinical formulation",111 % of control
same,T/C,"dose: 10.8 mg/kg/injection, schedule: Q01DX009 (ip), vehicle: clinical formulation",189 % of control and 193 % of control
same,T/C,"dose: 13.0 mg/kg/injection, schedule: Q04DX003 (ip), vehicle: clinical formulation",124 % of control
same,T/C,"dose: 16.0 mg/kg/injection, schedule: Q04DX003 (ip), vehicle: saline with Tween-80",121 % of control
same,T/C,"dose: 18.0 mg/kg/injection, schedule: Q01DX009 (ip), vehicle: clinical formulation",224 % of control and 232 % of control
same,T/C,"dose: 18.75 mg/kg/injection, schedule: Q04DX003 (ip), vehicle: clinical formulation",118 % of control
same,T/C,"dose: 30.0 mg/kg/injection, schedule: Q01DX004 (ip), vehicle: distilled water + Tween-80",196 % of control and 333 % of control
same,T/C,"dose: 30.0 mg/kg/injection, schedule: Q01DX009 (ip), vehicle: clinical formulation",303 % of control and 560 % of control
same,T/C,"dose: 32.4 mg/kg/injection, schedule: Q04DX003 (ip), vehicle: clinical formulation",156 % of control
same,T/C,"dose: 36.0 mg/kg/injection, schedule: Q04DX003 (ip), vehicle: clinical formulation",163 % of control
same,T/C,"dose: 37.5 mg/kg/injection, schedule: Q04DX003 (ip), vehicle: clinical formulation",123 % of control
same,T/C,"dose: 37.5 mg/kg/injection, schedule: Q04DX003 (ip), vehicle: saline with Tween-80",156 % of control
same,T/C,"dose: 37.5 mg/kg/injection, schedule: Q04DX003 (iv), vehicle: saline with Tween-80",120 % of control
same,T/C,"dose: 40.0 mg/kg/injection, schedule: Q01DX004 (ip), vehicle: distilled water + Tween-80",171 % of control
same,T/C,"dose: 50.0 mg/kg/injection, schedule: Q01DX004 (ip), vehicle: distilled water + Tween-80",91 % of control
same,T/C,"dose: 50.0 mg/kg/injection, schedule: Q01DX009 (ip), vehicle: clinical formulation",110 % of control
same,T/C,"dose: 54.0 mg/kg/injection, schedule: Q04DX003 (ip), vehicle: clinical formulation",193 % of control
same,T/C,"dose: 60.0 mg/kg/injection, schedule: Q01DX004 (ip), vehicle: distilled water + Tween-80",89 % of control
same,T/C,"dose: 60.0 mg/kg/injection, schedule: Q04DX003 (ip), vehicle: clinical formulation",219 % of control
same,T/C,"dose: 64.0 mg/kg/injection, schedule: Q04DX003 (ip), vehicle: saline with Tween-80",153 % of control and 161 % of control
same,T/C,"dose: 75.0 mg/kg/injection, schedule: Q04DX003 (ip), vehicle: clinical formulation",189 % of control
same,T/C,"dose: 75.0 mg/kg/injection, schedule: Q04DX003 (ip), vehicle: saline with Tween-80",180 % of control
same,T/C,"dose: 75.0 mg/kg/injection, schedule: Q04DX003 (iv), vehicle: saline with Tween-80",106 % of control
same,T/C,"dose: 90.0 mg/kg/injection, schedule: Q04DX003 (ip), vehicle: clinical formulation",219 % of control
same,T/C,"dose: 100.0 mg/kg/injection, schedule: Q04DX003 (ip), vehicle: clinical formulation",242 % of control
same,T/C,"dose: 128.0 mg/kg/injection, schedule: Q04DX003 (ip), vehicle: saline with Tween-80",168 % of control and 180 % of control and 201 % of control
same,T/C,"dose: 150.0 mg/kg/injection, schedule: Q04DX003 (ip), vehicle: saline with Tween-80",243 % of control and 270 % of control
same,T/C,"dose: 150.0 mg/kg/injection, schedule: Q04DX003 (iv), vehicle: saline with Tween-80",153 % of control
same,T/C,"dose: 256.0 mg/kg/injection, schedule: Q04DX003 (ip), vehicle: saline with Tween-80",173 % of control and 190 % of control and 257 % of control
same,T/C,"dose: 300.0 mg/kg/injection, schedule: Q04DX003 (ip), vehicle: clinical formulation",87 % of control
same,T/C,"dose: 300.0 mg/kg/injection, schedule: Q04DX003 (ip), vehicle: saline with Tween-80",252 % of control
same,T/C,"dose: 300.0 mg/kg/injection, schedule: Q04DX003 (iv), vehicle: saline with Tween-80",222 % of control
same,T/C,"dose: 512.0 mg/kg/injection, schedule: Q04DX003 (ip), vehicle: saline with Tween-80",117 % of control
same,T/C,"dose: 600.0 mg/kg/injection, schedule: Q04DX003 (iv), vehicle: saline with Tween-80",169 % of control
same,T/C,"dose: 1024.0 mg/kg/injection, schedule: Q04DX003 (ip), vehicle: saline with Tween-80",107 % of control
O=C(Nc1cc2cc([N+](=O)[O-])ccc2oc1=O)c1cccs1,T/C,"dose: 15.0 mg/kg/injection, schedule: Q01DX005 (ip), vehicle: saline with Tween-80",99 % of control
same,T/C,"dose: 30.0 mg/kg/injection, schedule: Q01DX005 (ip), vehicle: saline with Tween-80",90 % of control
same,T/C,"dose: 60.0 mg/kg/injection, schedule: Q01DX005 (ip), vehicle: saline with Tween-80",91 % of control
O=S(=O)(OC1=CCCCC1)C(F)(F)F,T/C,[1],100 % of control
same,T/C,[2],109 % of control
same,T/C,[3],112 % of control
same,T/C,"dose: 400.0 mg/kg/injection, schedule: Q01DX009 (ip), vehicle: saline with Tween-80",115 % of control
CC1CCC(C(=O)C2CCCCC2CC2CCCCC2)CC1 (configuration not stated),T/C,[4],105 % of control
same,T/C,[5],102 % of control
same,T/C,[6],96 % of control
COc1c2occc2c(N=Cc2ccncc2)c2ccc(=O)oc12,T/C,"dose: 100.0 mg/kg/injection, schedule: Q01DX001 (ip), vehicle: saline with Tween-80",88 % of control
same,T/C,"dose: 200.0 mg/kg/injection, schedule: Q01DX001 (ip), vehicle: saline with Tween-80",90 % of control
same,T/C,"dose: 400.0 mg/kg/injection, schedule: Q01DX001 (ip), vehicle: saline with Tween-80",96 % of control
O=c1c2cc3c(=O)n(CC#CCN4CCCCC4)c(=O)c3cc2c(=O)n1CC#CCN1CCCCC1,T/C,[4],100 % of control
same,T/C,[5],100 % of control
same,T/C,[6],98 % of control
C1COCCOCCOCCOCCO1.[Br][Sn]([Br])([Br])[Br],T/C,"dose: 7.5 mg/kg/injection, schedule: Q01DX005 (ip), vehicle: Klucel (hydroxypropylcellulose) (HPC)",96 % of control
same,T/C,"dose: 15.0 mg/kg/injection, schedule: Q01DX005 (ip), vehicle: Klucel (hydroxypropylcellulose) (HPC)",102 % of control
same,T/C,"dose: 30.0 mg/kg/injection, schedule: Q01DX005 (ip), vehicle: Klucel (hydroxypropylcellulose) (HPC)",105 % of control
CC(O)C(NC(=O)CNC(=O)CNC(=O)OCc1ccccc1)C(=O)O (stereo not drawn) (Cbz-Gly-Gly-[ξT]-OH),T/C,"dose: 50.0 mg/kg/injection, schedule: Q01DX005 (ip), vehicle: Klucel (hydroxypropylcellulose) (HPC)",96 % of control
same,T/C,"dose: 100.0 mg/kg/injection, schedule: Q01DX005 (ip), vehicle: Klucel (hydroxypropylcellulose) (HPC)",98 % of control
same,T/C,"dose: 200.0 mg/kg/injection, schedule: Q01DX005 (ip), vehicle: Klucel (hydroxypropylcellulose) (HPC)",95 % of control
O=C1c2ccccc2C(=O)N1Cc1cccc(I)c1,T/C,"dose: 60.0 mg/kg/injection, schedule: Q01DX005 (ip), vehicle: Klucel (hydroxypropylcellulose) (HPC)",97 % of control
same,T/C,"dose: 120.0 mg/kg/injection, schedule: Q01DX005 (ip), vehicle: Klucel (hydroxypropylcellulose) (HPC)",94 % of control
COc1ccccc1C(=O)CCN(C)C,T/C,"dose: 15.0 mg/kg/injection, schedule: Q01DX005 (ip), vehicle: saline",98 % of control
same,T/C,"dose: 30.0 mg/kg/injection, schedule: Q01DX005 (ip), vehicle: saline",112 % of control
same,T/C,"dose: 60.0 mg/kg/injection, schedule: Q01DX005 (ip), vehicle: saline",114 % of control and 97 % of control
CC1=NN(C(=O)c2ccncc2)C(=O)C1N=Nc1ccc(S(=O)(=O)N=C(N)N)cc1 (configuration not stated),T/C,[1],97 % of control
same,T/C,[2],94 % of control
same,T/C,[3],90 % of control
